Test results from the NIST ThermoML archive (doi:10.1021/je034041x).

How the values were obtained:
[1] = Liquid
[2] = xn = mol fraction of the nth substance listed; conditions: Liquid

O [water]
[1]
Conditions | viscosity [mPa·s]
273.9 K, 670 kPa | 1.833
274.2 K, 4630 kPa | 1.802
274.3 K, 670 kPa | 1.827
274.5 K, 670 kPa | 1.808
274.6 K, 4610 kPa | 1.804
274.7 K, 670 kPa | 1.774
275 K, 670 kPa | 1.737
275.1 K, 670 kPa | 1.725
275.3 K, 670 kPa | 1.705
275.6 K, 690 kPa | 1.683
275.9 K, 101.3 kPa | 1.64
275.9 K, 690 kPa | 1.66
276 K, 690 kPa | 1.652
276.1 K, 101.3 kPa | 1.637
276.1 K, 4780 kPa | 1.67
276.3 K, 101.3 kPa | 1.631
276.3 K, 4790 kPa | 1.652
276.4 K, 690 kPa | 1.622
276.5 K, 4810 kPa | 1.634
276.7 K, 101.3 kPa | 1.594
276.7 K, 690 kPa | 1.613
276.9 K, 101.3 kPa | 1.588
277.1 K, 690 kPa | 1.589
277.2 K, 101.3 kPa | 1.555
277.5 K, 690 kPa | 1.558
277.7 K, 4850 kPa | 1.459
278.3 K, 101.3 kPa | 1.491
278.6 K, 4890 kPa | 1.459
279.1 K, 710 kPa | 1.442
279.3 K, 101.3 kPa | 1.437
279.3 K, 710 kPa | 1.428
279.6 K, 4910 kPa | 1.425
279.9 K, 101.3 kPa | 1.405
281 K, 710 kPa | 1.357
281 K, 4910 kPa | 1.375
281.8 K, 769 kPa | 1.329
282.1 K, 729 kPa | 1.319
282.1 K, 4920 kPa | 1.338
282.2 K, 101.3 kPa | 1.286
282.2 K, 4870 kPa | 1.335

O=C=O [carbon dioxide] + O
[2]
Conditions | viscosity [mPa·s]
273.9 K, 670 kPa, x1 = 0.00869 | 1.855
274.2 K, 4630 kPa, x1 = 0.00295 | 2.827
274.3 K, 670 kPa, x1 = 0.00857 | 1.851
274.5 K, 670 kPa, x1 = 0.0085 | 1.839
274.6 K, 4610 kPa, x1 = 0.00294 | 2.951
274.7 K, 670 kPa, x1 = 0.00844 | 1.818
275 K, 670 kPa, x1 = 0.00834 | 1.794
275.1 K, 670 kPa, x1 = 0.00831 | 1.807
275.3 K, 670 kPa, x1 = 0.00824 | 1.771
275.6 K, 690 kPa, x1 = 0.00815 | 1.739
275.9 K, 690 kPa, x1 = 0.00805 | 1.705
276 K, 690 kPa, x1 = 0.00802 | 1.694
276.1 K, 4780 kPa, x1 = 0.00291 | 2.225
276.3 K, 4790 kPa, x1 = 0.00291 | 2.179
276.4 K, 690 kPa, x1 = 0.00789 | 1.647
276.5 K, 4810 kPa, x1 = 0.0029 | 2.171
276.7 K, 690 kPa, x1 = 0.00779 | 1.605
277.1 K, 690 kPa, x1 = 0.00766 | 1.604
277.5 K, 690 kPa, x1 = 0.00754 | 1.57
277.7 K, 4850 kPa, x1 = 0.00287 | 2.078
278.6 K, 4890 kPa, x1 = 0.00285 | 1.948
279.1 K, 710 kPa, x1 = 0.00702 | 1.438
279.3 K, 710 kPa, x1 = 0.00695 | 1.44
279.6 K, 4910 kPa, x1 = 0.00283 | 1.848
281 K, 710 kPa, x1 = 0.00641 | 1.367
281 K, 4910 kPa, x1 = 0.0028 | 1.728
281.8 K, 769 kPa, x1 = 0.00615 | 1.225
282.1 K, 729 kPa, x1 = 0.00605 | 1.267
282.1 K, 4920 kPa, x1 = 0.00277 | 1.539
282.2 K, 4870 kPa, x1 = 0.00277 | 1.576
